Reference: ChEMBL document CHEMBL1201862, “PubChem BioAssay data set” (2004)
The source made the active and inactive calls.

Legend:
INS1 = assay: beta cell apoptosis inhibitors, cytokine rescue, dose response, luminescence, retest (AID 449756); format: functional, cell-based; details: Rattus norvegicus;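 further: cell death triggered by IL-1 beta plus TNF-alpha plus IFN-gamma mixture; protective hits raise ATP signal compared with cytokine alone wells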
Protein Wnt-3a = Protein Wnt-3a (Mus musculus, UniProt P27467); assay: Wnt3a-driven reporter signaling inhibition, dose response, selectivity assay for Gli-SUFU antagonist project, Wnt-LIGHT cells, luminescence (AID 651570); format: functional; details: read-out: IC50_Mean;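 further: Wnt-LIGHT reporter cells stimulated with conditioned medium from Wnt3a-producing cells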
Protein Wnt-3a, sequence (P27467 whole entry): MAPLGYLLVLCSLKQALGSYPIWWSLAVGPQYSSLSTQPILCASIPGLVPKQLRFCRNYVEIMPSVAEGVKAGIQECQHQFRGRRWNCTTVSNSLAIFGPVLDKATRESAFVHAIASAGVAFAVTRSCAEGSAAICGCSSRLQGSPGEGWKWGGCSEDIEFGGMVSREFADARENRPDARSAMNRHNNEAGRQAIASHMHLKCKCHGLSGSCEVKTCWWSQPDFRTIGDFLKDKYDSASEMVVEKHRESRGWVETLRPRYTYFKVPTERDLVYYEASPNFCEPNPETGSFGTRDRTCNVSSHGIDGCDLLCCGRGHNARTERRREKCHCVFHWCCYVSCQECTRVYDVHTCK

[1] = cytotoxicity toward NIH3T3 fibroblasts, dose response, counter-screen, cell-based, ATP luminescence, mouse fibroblasts (AID 2010); format: functional;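 further: cells exposed to compound for about 90 hours before reading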
[2] = inhibitors of intracellular T. cruzi replication, confirmation, NIH3T3 host cells, beta-gal luminescence (AID 2044); format: functional, cell-based;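 further: intracellular parasites grown in NIH/3T3 mouse fibroblasts as host cells; luminescent beta-galactosidase reporter signal from transgenic T. cruzi replicating inside host cells; inhibitors lower the luminescence signal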
HEK293 [3] = assay: optical interference in Abeta FP readout, dose response, artefact control for IDE activator project, biochemical, fluorescence polarization (AID 588442); format: functional, cell-based; details: Homo sapiens
Insulin-degrading enzyme [4] = target: T1, Insulin-degrading enzyme (Homo sapiens, UniProt P14735); assay: activators of endogenous IDE in HEK cells, dose response, cell-based, fluorescence polarization (AID 588439); format: functional
T1 sequence (P14735 whole entry): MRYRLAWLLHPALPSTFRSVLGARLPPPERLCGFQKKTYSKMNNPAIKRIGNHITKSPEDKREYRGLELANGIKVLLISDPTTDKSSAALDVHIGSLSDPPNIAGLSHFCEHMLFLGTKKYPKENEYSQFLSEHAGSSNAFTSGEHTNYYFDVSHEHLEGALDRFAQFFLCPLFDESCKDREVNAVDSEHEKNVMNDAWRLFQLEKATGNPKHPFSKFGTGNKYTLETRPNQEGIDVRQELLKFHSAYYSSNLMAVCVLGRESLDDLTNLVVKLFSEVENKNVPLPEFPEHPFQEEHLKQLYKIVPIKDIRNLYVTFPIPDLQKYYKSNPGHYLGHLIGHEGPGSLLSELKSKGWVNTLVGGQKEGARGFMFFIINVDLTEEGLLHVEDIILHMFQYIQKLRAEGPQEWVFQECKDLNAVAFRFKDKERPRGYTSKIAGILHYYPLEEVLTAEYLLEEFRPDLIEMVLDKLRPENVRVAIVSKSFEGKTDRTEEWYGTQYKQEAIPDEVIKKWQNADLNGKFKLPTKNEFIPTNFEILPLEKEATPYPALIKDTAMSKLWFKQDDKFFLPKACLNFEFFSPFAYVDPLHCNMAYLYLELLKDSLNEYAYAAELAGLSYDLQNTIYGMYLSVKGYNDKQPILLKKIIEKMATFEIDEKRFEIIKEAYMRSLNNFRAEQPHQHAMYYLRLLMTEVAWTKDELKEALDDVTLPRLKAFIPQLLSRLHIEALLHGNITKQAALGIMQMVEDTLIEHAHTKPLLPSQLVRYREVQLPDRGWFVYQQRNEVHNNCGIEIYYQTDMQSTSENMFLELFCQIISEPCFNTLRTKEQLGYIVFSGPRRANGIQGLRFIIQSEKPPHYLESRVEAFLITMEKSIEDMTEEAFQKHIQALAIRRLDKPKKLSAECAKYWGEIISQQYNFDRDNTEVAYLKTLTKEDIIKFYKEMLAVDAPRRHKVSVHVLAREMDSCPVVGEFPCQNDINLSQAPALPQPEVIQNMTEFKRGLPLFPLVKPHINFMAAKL

HEK293 [5] = assay: HEK cell cytotoxicity by LDH release, dose response, cytotoxicity control for IDE activator project, fluorescence, HEK cells (AID 588440); format: functional, cell-based; details: Homo sapiens;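 further: cytotoxicity by LDH release measuring loss of membrane integrity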
Insulin-degrading enzyme [6] = target: T1, Insulin-degrading enzyme; assay: activators of recombinant IDE enzyme, dose response, counter-screen for IDE activator project, biochemical, fluorescence polarization (AID 588681)
[7] = target: DNA (cytosine-5)-methyltransferase 1 (Homo sapiens, UniProt P26358); assay: DNMT1 methyltransferase inhibitors, confirmation, biochemical, fluorescent molecular beacon (AID 602386); format: functional
DNA (cytosine-5)-methyltransferase 1, sequence (P26358 whole entry): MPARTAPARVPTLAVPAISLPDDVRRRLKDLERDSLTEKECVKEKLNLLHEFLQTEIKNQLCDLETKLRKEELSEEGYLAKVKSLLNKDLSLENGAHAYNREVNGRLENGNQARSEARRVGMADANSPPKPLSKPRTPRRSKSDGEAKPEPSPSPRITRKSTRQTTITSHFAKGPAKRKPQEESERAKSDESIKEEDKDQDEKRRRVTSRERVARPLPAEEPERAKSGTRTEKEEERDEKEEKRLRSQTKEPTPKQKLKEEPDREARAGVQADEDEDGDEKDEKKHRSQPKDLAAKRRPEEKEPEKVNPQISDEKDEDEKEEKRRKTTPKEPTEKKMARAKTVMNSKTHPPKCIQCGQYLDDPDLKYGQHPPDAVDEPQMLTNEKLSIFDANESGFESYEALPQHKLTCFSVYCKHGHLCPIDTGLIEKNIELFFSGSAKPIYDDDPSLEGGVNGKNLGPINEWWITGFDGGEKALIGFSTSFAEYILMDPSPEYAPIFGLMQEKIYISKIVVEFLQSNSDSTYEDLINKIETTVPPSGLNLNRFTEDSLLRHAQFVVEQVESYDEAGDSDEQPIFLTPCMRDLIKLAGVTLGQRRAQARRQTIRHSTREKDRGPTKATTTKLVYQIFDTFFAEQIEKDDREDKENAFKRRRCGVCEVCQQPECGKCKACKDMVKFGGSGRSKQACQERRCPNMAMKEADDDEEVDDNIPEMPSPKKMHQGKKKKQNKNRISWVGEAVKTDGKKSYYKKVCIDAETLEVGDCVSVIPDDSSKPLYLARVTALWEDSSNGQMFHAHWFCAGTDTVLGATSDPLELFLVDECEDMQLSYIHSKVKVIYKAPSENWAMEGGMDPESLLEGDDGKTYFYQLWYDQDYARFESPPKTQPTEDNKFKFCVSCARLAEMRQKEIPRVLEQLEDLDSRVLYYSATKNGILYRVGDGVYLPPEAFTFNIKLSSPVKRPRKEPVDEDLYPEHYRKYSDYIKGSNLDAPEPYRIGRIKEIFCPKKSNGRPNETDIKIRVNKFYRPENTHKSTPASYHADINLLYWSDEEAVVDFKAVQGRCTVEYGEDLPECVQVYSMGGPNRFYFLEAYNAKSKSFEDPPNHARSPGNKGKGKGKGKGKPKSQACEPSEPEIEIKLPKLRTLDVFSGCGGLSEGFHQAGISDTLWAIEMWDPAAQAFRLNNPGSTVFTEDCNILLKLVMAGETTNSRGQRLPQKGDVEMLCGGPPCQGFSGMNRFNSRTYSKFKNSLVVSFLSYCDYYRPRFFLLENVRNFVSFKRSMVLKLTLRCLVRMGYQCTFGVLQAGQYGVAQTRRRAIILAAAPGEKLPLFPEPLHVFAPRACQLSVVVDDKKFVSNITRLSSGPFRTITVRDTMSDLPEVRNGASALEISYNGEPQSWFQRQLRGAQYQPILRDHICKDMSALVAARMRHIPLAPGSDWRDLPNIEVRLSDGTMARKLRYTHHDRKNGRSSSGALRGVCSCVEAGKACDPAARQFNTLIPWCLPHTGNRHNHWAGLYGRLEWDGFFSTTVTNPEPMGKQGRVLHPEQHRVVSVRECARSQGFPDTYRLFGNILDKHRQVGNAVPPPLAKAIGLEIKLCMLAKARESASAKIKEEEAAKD

[8] = microbe, parasite or virus in culture; format: functional; details: Mycobacterium tuberculosis
[9] = cytotoxicity in MIN6 insulinoma cells, dose response, cytotoxicity control, cell-based, mouse insulinoma (AID 2122); format: functional;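 further: confirmatory high-throughput counterscreen run to flag cytotoxic compounds; mouse MIN-6 beta cells carrying an insulin promoter eGFP reporter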
[10] = target: T2, Ubiquitin-conjugating enzyme E2 N (Homo sapiens, UniProt P61088); format: functional;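 further: Dose-response confirmation in a TR-FRET assay detecting UBC13-driven polyubiquitin chain formation, inhibition measured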
T2 sequence (P61088 whole entry): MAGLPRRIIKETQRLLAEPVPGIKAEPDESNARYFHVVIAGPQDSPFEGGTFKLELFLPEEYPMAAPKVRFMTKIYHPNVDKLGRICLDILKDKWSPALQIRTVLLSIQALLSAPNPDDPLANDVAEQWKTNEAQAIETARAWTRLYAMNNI

[11] = growth suppression of beta-catenin-knockout colon cells, dose response, cell-based, HCT116, human colon tumor (AID 1045); format: functional;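 further: HCT116 colon tumor cells with beta catenin knocked out; cells exposed to compound for 60 hours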
[12] = insulin promoter down-regulators in MIN6 cells, imaging, high-content screening, mouse beta cells (AID 1628); format: functional
[13] = target: DNA repair and recombination protein RAD54-like (Homo sapiens, UniProt Q92698); assay: inhibitors of human RAD54 branch migration, confirmation, biochemical, fluorescence, cherry-picked samples, dose series (AID 651657); format: functional
DNA repair and recombination protein RAD54-like, sequence (Q92698 whole entry): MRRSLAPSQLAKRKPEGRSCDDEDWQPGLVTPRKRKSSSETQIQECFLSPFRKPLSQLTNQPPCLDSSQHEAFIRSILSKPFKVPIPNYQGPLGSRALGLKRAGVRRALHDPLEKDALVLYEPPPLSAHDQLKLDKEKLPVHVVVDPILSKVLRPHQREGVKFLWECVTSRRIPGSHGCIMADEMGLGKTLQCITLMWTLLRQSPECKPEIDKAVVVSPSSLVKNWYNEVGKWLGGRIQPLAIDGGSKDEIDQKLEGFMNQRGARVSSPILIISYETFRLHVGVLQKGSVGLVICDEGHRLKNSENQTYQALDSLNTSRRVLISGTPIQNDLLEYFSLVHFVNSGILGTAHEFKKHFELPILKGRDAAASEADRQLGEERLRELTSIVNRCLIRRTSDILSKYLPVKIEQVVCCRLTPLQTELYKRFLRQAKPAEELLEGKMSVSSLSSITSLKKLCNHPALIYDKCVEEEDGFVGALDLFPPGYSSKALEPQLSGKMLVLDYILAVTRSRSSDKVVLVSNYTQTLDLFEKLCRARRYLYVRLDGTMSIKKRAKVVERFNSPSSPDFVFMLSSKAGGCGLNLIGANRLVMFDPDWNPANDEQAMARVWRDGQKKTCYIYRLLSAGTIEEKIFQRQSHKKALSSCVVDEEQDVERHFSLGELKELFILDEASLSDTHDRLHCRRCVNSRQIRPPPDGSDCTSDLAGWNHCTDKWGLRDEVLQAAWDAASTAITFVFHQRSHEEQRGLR

[14] = growth suppression of PTEN-null colon cells, dose response, cell-based, HCT116 PTEN knockout (AID 1047); format: functional;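 further: HCT116 colon tumor cells with PTEN knocked out; cells exposed to compound for 60 hours before readout; potency for loss of cell viability measured by luminescence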
Steroidogenic factor 1 = Steroidogenic factor 1 (Homo sapiens, UniProt Q13285); assay: Counterscreen for inverse agonists of the liver receptor homolog-1 (LRH-1; NR5A2): Luminescence-based cell-based high throughput dose response assay to identify inverse agonists of the Steroidogenic Factor 1 Nuclear Receptor (SF1; NR5A1).; format: functional
Steroidogenic factor 1, sequence (Q13285 whole entry): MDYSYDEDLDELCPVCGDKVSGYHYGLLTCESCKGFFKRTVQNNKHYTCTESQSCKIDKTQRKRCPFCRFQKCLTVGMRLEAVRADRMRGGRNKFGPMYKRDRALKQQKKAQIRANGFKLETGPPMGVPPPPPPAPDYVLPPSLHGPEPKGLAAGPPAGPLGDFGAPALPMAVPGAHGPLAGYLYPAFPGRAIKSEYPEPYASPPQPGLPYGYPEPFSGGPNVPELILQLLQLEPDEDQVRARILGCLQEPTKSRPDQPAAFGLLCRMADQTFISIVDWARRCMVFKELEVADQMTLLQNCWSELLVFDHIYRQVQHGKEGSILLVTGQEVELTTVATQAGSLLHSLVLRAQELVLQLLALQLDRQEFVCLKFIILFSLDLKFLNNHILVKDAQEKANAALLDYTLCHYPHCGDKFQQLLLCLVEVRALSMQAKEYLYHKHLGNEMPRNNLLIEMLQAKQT

[15] = target: Nuclear receptor subfamily 5 group A member 2 (Homo sapiens, UniProt O00482); format: functional, cell-based;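 further: HEK293T cells transfected with LRH-1 and a StAR promoter luciferase reporter; potency for inhibitors that lower LRH-1 driven reporter light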
Nuclear receptor subfamily 5 group A member 2, sequence (O00482 whole entry): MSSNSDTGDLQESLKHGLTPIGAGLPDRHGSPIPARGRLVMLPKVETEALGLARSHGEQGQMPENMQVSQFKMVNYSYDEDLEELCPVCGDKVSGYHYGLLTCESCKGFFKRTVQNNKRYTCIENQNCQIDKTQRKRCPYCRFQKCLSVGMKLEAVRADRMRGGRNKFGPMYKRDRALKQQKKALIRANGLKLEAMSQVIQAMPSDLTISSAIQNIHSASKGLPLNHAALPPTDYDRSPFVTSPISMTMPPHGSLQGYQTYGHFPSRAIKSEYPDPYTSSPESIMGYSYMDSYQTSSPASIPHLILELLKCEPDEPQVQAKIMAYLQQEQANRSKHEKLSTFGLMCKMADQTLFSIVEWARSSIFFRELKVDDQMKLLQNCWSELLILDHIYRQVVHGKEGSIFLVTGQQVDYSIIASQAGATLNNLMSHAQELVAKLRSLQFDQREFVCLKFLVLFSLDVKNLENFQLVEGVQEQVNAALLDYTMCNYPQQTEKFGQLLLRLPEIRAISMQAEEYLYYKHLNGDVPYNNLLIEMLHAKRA

[16] = StAR promoter reporter inhibition counter-screen, dose response, counter-screen for LRH-1 inverse agonist project, cell-based, luminescence, luciferase reporter (AID 651969); format: functional
[17] = target: ADP-ribosylation factor GTPase-activating protein 1 (Rattus norvegicus, UniProt Q62848); assay: Fluorescence polarization-based biochemical high throughput dose response screening assay to identify inhibitors of ADP-ribosylation factor GTPase activating protein 1 (ARFGAP1).; format: functional
ADP-ribosylation factor GTPase-activating protein 1, sequence (Q62848 whole entry): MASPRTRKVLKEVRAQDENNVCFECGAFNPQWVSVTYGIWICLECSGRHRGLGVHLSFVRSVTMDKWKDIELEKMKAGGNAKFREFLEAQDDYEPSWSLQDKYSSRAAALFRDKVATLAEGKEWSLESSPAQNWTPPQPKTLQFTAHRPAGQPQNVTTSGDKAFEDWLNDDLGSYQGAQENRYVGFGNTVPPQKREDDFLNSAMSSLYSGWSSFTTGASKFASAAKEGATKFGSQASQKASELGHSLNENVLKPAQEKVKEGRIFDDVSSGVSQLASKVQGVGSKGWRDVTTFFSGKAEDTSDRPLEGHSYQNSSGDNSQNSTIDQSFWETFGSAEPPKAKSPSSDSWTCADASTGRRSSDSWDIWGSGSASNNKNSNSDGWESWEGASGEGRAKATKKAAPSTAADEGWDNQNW

[18] = target: T3, DNA repair protein RAD52 homolog (Homo sapiens, UniProt P43351); format: functional, biochemical
T3 sequence (P43351 whole entry): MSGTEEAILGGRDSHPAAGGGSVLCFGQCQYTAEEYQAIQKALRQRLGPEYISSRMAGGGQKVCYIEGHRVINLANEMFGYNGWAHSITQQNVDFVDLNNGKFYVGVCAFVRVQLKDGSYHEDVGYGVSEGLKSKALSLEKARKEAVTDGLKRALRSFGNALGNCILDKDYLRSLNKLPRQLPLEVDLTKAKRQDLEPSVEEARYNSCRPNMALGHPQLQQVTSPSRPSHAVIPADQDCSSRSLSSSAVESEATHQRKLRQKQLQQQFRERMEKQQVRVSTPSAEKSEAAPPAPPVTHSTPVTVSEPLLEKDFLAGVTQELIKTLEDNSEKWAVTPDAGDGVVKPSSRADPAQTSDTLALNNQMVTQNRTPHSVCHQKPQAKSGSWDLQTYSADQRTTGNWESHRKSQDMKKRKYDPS

[19] = target: Tyrosine-protein phosphatase non-receptor type 5 (Homo sapiens, UniProt P54829); assay: STEP phosphatase inhibitors, confirmation, biochemical, fluorescence intensity, uHTS hits (AID 602372); format: functional; details: read-out: IC50_Mean
[20] = target: Dual specificity protein phosphatase 3 (Homo sapiens, UniProt P51452); assay: VHR phosphatase inhibition, dose response, selectivity assay for STEP inhibitor project, biochemical (AID 602374); format: functional; details: read-out: IC50_Mean
Dual specificity protein phosphatase 3, sequence (P51452 whole entry): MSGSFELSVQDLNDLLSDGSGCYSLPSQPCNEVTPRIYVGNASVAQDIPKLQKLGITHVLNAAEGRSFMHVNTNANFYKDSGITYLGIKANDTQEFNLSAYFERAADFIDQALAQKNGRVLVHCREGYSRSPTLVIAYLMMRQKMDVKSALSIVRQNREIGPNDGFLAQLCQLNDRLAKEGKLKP

[21] = target: Tyrosine-protein phosphatase non-receptor type 11 (Homo sapiens, UniProt Q06124); assay: SHP2 phosphatase inhibition, dose response, selectivity assay for STEP inhibitor project, biochemical (AID 602367); format: functional; details: read-out: IC50_Mean
Tyrosine-protein phosphatase non-receptor type 11, sequence (Q06124 whole entry, the tested form may be a part): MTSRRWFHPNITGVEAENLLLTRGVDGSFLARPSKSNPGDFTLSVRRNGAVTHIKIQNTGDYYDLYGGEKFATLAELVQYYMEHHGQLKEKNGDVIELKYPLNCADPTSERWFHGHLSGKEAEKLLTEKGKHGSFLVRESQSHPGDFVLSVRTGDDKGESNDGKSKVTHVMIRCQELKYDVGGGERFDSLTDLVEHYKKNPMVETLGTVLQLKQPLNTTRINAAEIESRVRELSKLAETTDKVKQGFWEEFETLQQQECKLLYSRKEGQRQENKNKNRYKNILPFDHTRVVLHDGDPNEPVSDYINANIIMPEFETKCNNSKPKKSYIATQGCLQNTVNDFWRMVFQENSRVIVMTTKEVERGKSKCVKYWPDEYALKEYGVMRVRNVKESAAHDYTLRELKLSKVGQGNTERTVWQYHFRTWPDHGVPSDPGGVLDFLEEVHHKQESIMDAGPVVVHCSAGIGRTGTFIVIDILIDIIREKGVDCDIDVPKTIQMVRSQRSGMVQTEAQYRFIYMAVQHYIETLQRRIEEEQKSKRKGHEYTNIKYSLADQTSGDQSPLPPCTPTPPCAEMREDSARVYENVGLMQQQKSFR

[22] = target: T4, Carboxy-terminal domain RNA polymerase II polypeptide A small phosphatase 1 (Homo sapiens, UniProt Q9GZU7); assay: inhibitors of CTDSP1, concentration-response testing, biochemical assay, absorbance-based, actives from ultra-high-throughput screening (AID 540297); format: functional
T4 sequence (Q9GZU7 whole entry): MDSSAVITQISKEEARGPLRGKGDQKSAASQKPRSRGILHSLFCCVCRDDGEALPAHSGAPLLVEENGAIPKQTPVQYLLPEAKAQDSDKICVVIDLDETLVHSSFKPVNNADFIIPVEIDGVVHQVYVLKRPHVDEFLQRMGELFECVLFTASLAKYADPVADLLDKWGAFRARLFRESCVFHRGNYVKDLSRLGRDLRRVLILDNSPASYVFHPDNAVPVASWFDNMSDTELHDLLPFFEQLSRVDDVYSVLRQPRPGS

[23] = target: T5, Rac GTPase-activating protein 1 (Homo sapiens, UniProt Q9H0H5); assay: MgcRacGAP GTPase-activating activity inhibitors, confirmation, biochemical, ADP Hunter fluorescence, primary and confirmatory (AID 624330); format: functional
T5 sequence (Q9H0H5 whole entry): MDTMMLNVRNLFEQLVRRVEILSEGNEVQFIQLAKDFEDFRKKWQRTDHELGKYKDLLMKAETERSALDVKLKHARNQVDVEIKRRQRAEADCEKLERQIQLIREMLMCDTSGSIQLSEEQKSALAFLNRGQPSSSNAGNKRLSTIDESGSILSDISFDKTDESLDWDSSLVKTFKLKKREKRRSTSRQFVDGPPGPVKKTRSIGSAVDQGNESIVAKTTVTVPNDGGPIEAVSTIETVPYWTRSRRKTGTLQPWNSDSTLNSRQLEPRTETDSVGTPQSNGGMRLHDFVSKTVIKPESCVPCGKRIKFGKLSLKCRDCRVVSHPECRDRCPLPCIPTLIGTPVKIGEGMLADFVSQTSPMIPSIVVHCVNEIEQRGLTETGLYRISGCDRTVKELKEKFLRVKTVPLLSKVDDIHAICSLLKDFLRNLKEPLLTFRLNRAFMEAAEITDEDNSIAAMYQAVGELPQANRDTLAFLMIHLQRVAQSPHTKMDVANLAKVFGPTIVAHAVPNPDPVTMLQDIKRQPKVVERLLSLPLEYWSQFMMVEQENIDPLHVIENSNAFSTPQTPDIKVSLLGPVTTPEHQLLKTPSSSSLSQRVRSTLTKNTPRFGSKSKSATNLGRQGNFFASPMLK

Cc1cc(/C=C2/SC(=S)N(c3ccc([N+](=O)[O-])cc3)C2=O)c(C)n1-c1cccnc1
AC50 (INS1): 0.862 µM (active)
IC50 (Protein Wnt-3a): 8.94 µM (active)
EC50 [1]: > 60 µM (inconclusive)
EC50 [2]: 0.915 µM (active)

CC(C)CN(C(=O)COC(=O)c1ccc(Br)cc1)c1c(N)n(Cc2ccccc2)c(=O)[nH]c1=O
EC50 (HEK293 [3]): > 55.9 µM (inactive)
EC50 (Insulin-degrading enzyme [4]): > 54.7 µM (inactive)
IC50 (HEK293 [5]): 13.4 µM (inactive)
EC50 (Insulin-degrading enzyme [6]): > 54.7 µM (inactive)

CCN(CC)CCCNc1nc2cc(OC)c(OC)cc2c2nc(-c3ccccc3)nn12
IC50 [7]: > 99 µM (inactive)
CC50 [8]: 19.9 µM (active)
IC50 [9]: 2.07 µM (active)
IC50 [10]: > 20 µM (inactive)
EC50 [11]: 4.58 µM (active)
EC50 [1]: 12 µM (active)
EC50 [2]: 0.709 µM (active)
IC50 [12]: 1.11 µM (active)
AC50 [13]: 2.03 µM (active)
EC50 [14]: 7.1 µM (active)

COc1ccccc1Oc1nnnn1-c1ccc(C(N)=O)cc1
IC50 (Steroidogenic factor 1): 7.85 µM (active)
IC50 [15]: 35.9 µM (inactive)
IC50 [16]: 35.9 µM (inactive)

Cc1cc(O)nc(SCC(=O)/C=C2\N(C)c3ccccc3C2(C)C)n1
IC50 (Protein Wnt-3a): 50 µM (inactive)

COCCCn1c(C)cc(C(=O)CN2c3cccc4cccc(c34)S2(=O)=O)c1C
IC50 [17]: 60.2 µM (inactive)

O=C(COC(=O)c1ccc[n+]([O-])c1)Nc1ccc([N+](=O)[O-])cc1Cl
IC50 (Steroidogenic factor 1): 4.98 µM (active)
IC50 [15]: 3.98 µM (active)
IC50 [16]: 35.9 µM (inactive)

Cc1c(OCC(=O)NC2CC(C)(C)NC(C)(C)C2)ccc2c1oc(=O)c1ccccc12
AC50 [18]: 27.1 µM (active)
AC50 [13]: 22.4 µM (active)

CCOC(=O)C1(CC2CC2)CCN(Cc2cnc(N(C)C)s2)CC1
EC50 (HEK293 [3]): > 56 µM (inactive)
EC50 (Insulin-degrading enzyme [4]): > 54.7 µM (inactive)
IC50 (HEK293 [5]): > 89.3 µM (inactive)
EC50 (Insulin-degrading enzyme [6]): > 54.7 µM (inactive)

CC(C)OCCCN=C(S)Nc1ccc(S(N)(=O)=O)cc1
IC50 [19]: 53 µM (inactive)
IC50 [20]: 1.08 µM (active)
IC50 [21]: 0.771 µM (active)

Cc1cc(NS(=O)(=O)c2ccc(NC(=S)NC(=O)c3cccc(S(=O)(=O)N(C)C)c3)cc2)no1
IC50 [17]: 46.6 µM (inactive)

C/C=C/C=C/C(=O)C1=C(O)[C@]2(C)C(=O)C(C)(O)[C@H]1[C@H]([C@]1(C)OC(O)=C(C)C1=O)[C@H]2C(=O)/C=C/C=C/C (some centres undefined)
IC50 [7]: 5.25 µM (active)
IC50 [22]: 5.92 µM (active)
IC50 [23]: 122 µM (active)
